Measured values taken from patent US20240011027A1, “METHODS AND COMPOSITIONS FOR RESTORING STMN2 LEVELS” (President and Fellows of Harvard College, priority 2020, published 2024).

Legend:
Assay type in all cases: cell-based, human
STMN2 cryptic exon = test: RT-PCR detection of transcripts containing the STMN2 cryptic exon in hMNs treated with proteasome inhibitors
Protocol: It was then asked if cryptic exon inclusion could be contributing to decreased STMN2 levels in hMNs after proteasome inhibition. To accomplish this goal, an RT-PCR assay was developed to detect transcripts containing the cryptic exon (FIG. 5F). […] Total RNA was isolated from neurons using RNeasy Mini Kit (Qiagen) according to manufacturer's instructions. A total of 300-1000 ng of total RNA was used to synthesize cDNA by reverse transcription according to the iSCRIPT kit (Bio-rad). RT-PCR was then performed using one cryptic exon-specific primer and then analyzed using the Agilent 2200 Tapestation.

hMNs = test: neurite outgrowth, Sholl analysis of hMNs; settings: 10 μM; STMN2+/+ and STMN2−/− hMNs
Protocol: Given the reported role of STMN2 in regulating axonal growth by promoting the dynamic instability of microtubules (77), phenotypic assays were carried out characterizing neurite outgrowth in the STMN2−/− hMNs. After 7 days in culture, sorted hMNs were fixed and stained for β-III-tubulin to label the neuronal processes (FIG. 4E).
Individual Tuj1-positive neurons used for Sholl analyses were randomly selected and imaged using a Nikon Eclipse TE300 with a 40× objective. The neurites were traced using the ImageJ (NIH) plugin NeuronJ (78), and Sholl analysis was performed using the Sholl tool of Fiji (96), quantifying the number of intersections at intervals from the cell body. Statistical analysis was performed by comparing the number of intersections of KO clones with the parental WT line for each 10 μm interval using Prism 6 (Graph Pad, La Jolla, CA, USA). Significance was assessed by a standard Student's t-test, with a p value of p<0.05 considered as significant.

patient's motor neurons = test: axonal regrowth after axotomy in microfluidic devices, TDP-43 depleted patient's motor neurons; settings: for axon extension from the microchannel (regrowth after injury), mean values / axonal regrowth after injury relative to the non-targeting control ASO: patient's motor neurons treated with siTARDBP, 18 hours after axotomy; for neurite outgrowth deficits following TDP-43 depletion: FIG. 92
Protocol: Sorted motor neurons were cultured in standard neuron microfluidic devices (SND150, XONA Microfluidics) mounted on glass coverslips coated with 0.1 mg/ml poly-D-lysine (Sigma-Aldrich) and 5 μg/ml laminin (Invitrogen) at a concentration of around 250,000 neurons/device. Axotomy was performed at day 7 of culture by repeated vacuum aspiration and reperfusion of the axon chamber until axons were cut effectively without disturbing cell bodies in the soma compartment.
To test if ASO SJ+94 could rescue axonal regrowth after TDP-43 depletion and injury, the patient's motor neurons were cultured in microfluidic devices that permitted axon growth into a chamber distinct from the neuronal cell bodies (FIG. 91A). Neurons cultured for 7 days in the soma compartment of the device extended axons through the microchannels into the axon chamber. Neurons were treated with siTARDBP and ASO SJ+94 before severing axons without disturbing cell bodies in the soma compartment. The axon extension was then measured from the microchannel to assess regrowth after injury (FIG. 91B, FIG. 91D).

STMN2 protein = test: immunoblot of STMN2 protein levels in patient's motor neurons following reduction of TDP-43 by siRNA; settings: patient's motor neurons after TDP-43 reduction by siRNA; compared to NTC / siRNA controls
Protocol: For analysis of TDP-43 and STMN2 protein expression levels, d10 MNs were lysed in RIPA buffer (150 mM Sodium Chloride; 1% Triton X-100; 0.5% sodium deoxycholate; 0.1% SDS; 50 mM Tris pH 8.0) containing protease and phosphatase inhibitors (Roche) for 20 min on ice, and centrifuged at high speed. 200 μL of RIPA buffer per well of 24-well culture were routinely used, which yielded ˜20 μg of total protein as determined by BCA (Thermo Scientific). After two washes with RIPA buffer, insoluble pellets were resuspended in 200 μl of UREA buffer (Bio-Rad). For immunoblot assays 2-3 μg of total protein were separated by SDS-PAGE (BioRad), transferred to PDVF membranes (BioRad) and probed with antibodies against TDP-43 (1:1000, ProteinTech Group), GAPDH (1:1000, Millipore) and STMN2 (1:3000, Novus). Insoluble pellets were loaded based on protein concentration of correspondent RIPA-soluble counterparts. The same PDVF membrane was immunoassayed 2-3 times using Restore™ PLUS Western Blot Stripping Buffer (Thermo Scientific). GAPDH levels were used to normalized each sample, and LiCor software was used to quantitate protein band signal.
After establishing and validating that the STMN2 ASOs could affect transcript levels, it was sought to determine if they could also rescue diminished protein levels observed after TDP-43 reduction. The patient's motor neurons were treated with siRNAs and either a nontargeting ASO (NTC) or one of the lead compounds from the screen (FIG. 90, FIG. 97). […] Unlike the cells treated with the non-targeting control ASO (NTC), restoration of STMN2 to the levels of the siRNA controls for the lead candidates was observed.

STMN2 transcript = test: qRT-PCR of truncated (cryptic) and full-length STMN2 RNA in patient's motor neurons treated with siTARDBP and ASOs; settings: for STMN2 in TDP-43 depleted neurons: FIG. 93; for cry STMN2 in TDP-43 depleted neurons: FIG. 94; for cryptic STMN2 RNA levels (cryptic splicing) / full-length STMN2 RNA levels: patient's motor neurons treated with siTARDBP, ASO 30 nM to 0.03 nM, qRT-PCR normalized using RNA18S5, relative to NTC
Protocol: In total, 51 ASOs were screened in the patient's motor neurons for their ability to (1) suppress the generation of truncated STMN2 transcript as well as (2) restore the full-length STMN2 transcript.
In the first experiment the patient's motor neurons were treated with siTARDBP, the patient's motor neurons were then cultured with the various ASOs over a range of concentrations (ranging from 30 nM to 0.03 nM) before extracting total RNA. Extracted RNA was used to synthesize cDNA by reverse transcription. qRT-PCR was used to assess levels for both truncated and full-length STMN2 RNAs normalized using RNA18S5 expression.

STMN2 RNA = test: qRT-PCR of full-length STMN2 after proteasome inhibition with MG-132 in patient's motor neurons; settings: patient's motor neurons; MG-132 (1 uM)
From the text: It was established that ASO (SJ+94) and ASO (SJ-1) suppressed cryptic splicing of STMN2 and restored full length STMN2 RNA in the patient's motor neurons when there is a reduction in nuclear TDP-43. […] Post-mortem tissue studies have shown that TDP-43 mis-localization and its aggregation in cytoplasm is a hallmark of sporadic ALS. Several groups have reported cytoplasmic aggregation of TDP-43 akin to that observed in post-mortem tissue of sporadic ALS patients occurs in response to pharmacological inhibition of the proteasome (1, 4).

STMN2 = STMN2 multiplexed qPCR assay in neurons after TDP-43 reduction by ASO or siRNA; settings: compared with SCR ASO
From the text: FIGS. 17A-17C show RNA can be readily collected from CSF-derived exosomes and then converted into cDNA to assay for full and cryptic STMN2 transcripts as well as control RNAs for normalization (FIG. 17A). […] STMN2 transcripts are normalized to the house keeping ribosomal subunit RNA18S5. TDP-43 levels were reduced in cultured human neurons using either an antisense oligonucleotide (ASO) to deplete cells of TDP-43 or an siRNAs to induce TDP-43 knockdown. […] Using the validated multiplexed qPCR assay, next RNA was isolated from CSF-derived exosomes using 300 ul patient samples to determine the levels of cryptic STMN2 (n=7 healthy controls, n=2 disease mimics and n=9 ALS patients). […] Note that even in this modest set of samples that the increase in cryptic exon expression in ALS patients was highly significant (P<0.005). […] Finally, there is an interesting “texture” to the patient data with some patients showing high levels of expression and others more normal levels. It is hypothesized that patients with lower levels may either be earlier in their disease or have non-TDP-43 disease.

In the case of `CC(C)C[C@H](NC(=O)[C@H](Cc1ccccc1)NC(=O)c1cnccn1)B(O)O` [Bortezomib], the “transcripts containing the STMN2 cryptic exon (PCR assay)” value (STMN2 cryptic exon) is reported as “presence of transcripts containing the STMN2 cryptic exon”.

With `C[C@@H](N)[C@H]1CC[C@H](C(=O)Nc2ccncc2)CC1` [Y-27632] the “neurite outgrowth (Sholl analysis)” value (hMNs) was “enhancing the outgrowth of the STMN^+/+ line but not the STMN^−/− line”.

With “NTC: non-targeting control ASO CCTATAGGACTATCCAGGAA (chemistry not given here) [reference compound]” the “axon extension from the microchannel (regrowth after injury), mean values” (patient's motor neurons) was 176 um.

“SJ+94: antisense oligonucleotide CATTTCTTCTTAGGCAGGCT, fully modified with MOE sugars and phosphorothioate linkages (all 2'-MOE, all phosphorothioate, methylation of C not given here)” was tested, and the STMN2 protein levels (STMN2 protein) was “increase is significant”, the “STMN2 in TDP-43 depleted neurons” value (STMN2 transcript) was “restored” and the “cry STMN2 in TDP-43 depleted neurons” value (STMN2 transcript) was “reduced”. For the same compound, the “cryptic STMN2 RNA levels (cryptic splicing)” value (STMN2 transcript) was “suppress cryptic splicing”, the “full-length STMN2 RNA levels” value (STMN2 transcript) was “restore full length STMN2 RNA” and the “neurite outgrowth deficits following TDP-43 depletion” value (patient's motor neurons) was “rescued”. For the same compound, the “axonal regrowth after injury relative to the non-targeting control ASO” value (patient's motor neurons) was “significantly increased regrowth” and the “full length STMN2 RNA levels compared to non-targeting control ASO (NTC)” value (STMN2 RNA) was “significantly higher levels of full length STMN2 RNA”.

For “SJ+101: antisense oligonucleotide TTCACATTCATTTCTTCTTAG, fully modified with MOE sugars and phosphorothioate linkages (all 2'-MOE, all phosphorothioate, methylation of C not given here)”, the STMN2 protein levels (STMN2 protein) was “increase is significant”, the “STMN2 in TDP-43 depleted neurons” value (STMN2 transcript) was “restored” and the “cry STMN2 in TDP-43 depleted neurons” value (STMN2 transcript) was “reduced”. The “neurite outgrowth deficits following TDP-43 depletion” value (patient's motor neurons) was “rescued”.

For “SJ-1: antisense oligonucleotide AGGTCTTCTGCCGAGTC C, fully modified with MOE sugars and phosphorothioate linkages (antisense AGGTCTTCTGCCGAGTCC; all 2'-MOE, all phosphorothioate, methylation of C not given here)”, the STMN2 protein levels (STMN2 protein) was “increase is significant”, the “STMN2 in TDP-43 depleted neurons” value (STMN2 transcript) was “restored” and the “cry STMN2 in TDP-43 depleted neurons” value (STMN2 transcript) was “reduced”. For the same compound, the “cryptic STMN2 RNA levels (cryptic splicing)” value (STMN2 transcript) was “suppressing cryptic splicing”, the “full-length STMN2 RNA levels” value (STMN2 transcript) was “restoring full length STMN2 RNA” and the “neurite outgrowth deficits following TDP-43 depletion” value (patient's motor neurons) was “rescued”. The “axon extension from the microchannel (regrowth after injury), mean values” (patient's motor neurons) was 243 um, the “axonal regrowth after injury relative to the non-targeting control ASO” value (patient's motor neurons) was “significantly increased regrowth” and the “full-length STMN2 RNA levels, higher than non-targeting control ASO (NTC)” value (STMN2 RNA) was 30%.

For “TDP-43 ASO: antisense oligonucleotide to deplete cells of TDP-43, AAGGCTTCATATTGTACTTT (chemistry not given here)”, the “relative expression of STMN2 (Exons 3-4)” value (STMN2) was “STMN2 reduction” and the “relative expression of cryptic STMN2” value (STMN2) was “cryptic exon induction”.
